Series [1] deals with SARS-CoV-2 3CL Protease (Severe acute respiratory syndrome coronavirus 2, UniProt P0DTD1). Put plainly: biochemical. The following applies: for % inhibition: 100 µM.
Series [2] in a line: Cytotoxicity assay (MTT). Type of series: cell-based. The following applies: African green monkey, VERO-E6 cells. The method, then:
The cytotoxic activity of the tested compounds was tested in VERO-E6 cells by using the 3-(4, 5-dimethylthiazol-2-yl)-2, 5-diphenyltetrazolium bromide (MTT) method with minor modifications. Briefly, the cells were seeded in 96 well-plates (100 µL/well at a density of 3 × 10^5 cells/mL) and incubated for 24 h at 37 °C in 5% CO2. After 24 h, cells were treated with various concentrations of the tested compounds in triplicates. 24 h later, the supernatant was discarded, and cell monolayers were washed with sterile 1× phosphate buffer saline (PBS) 3 times and MTT solution (20 µL of 5 mg/mL stock solution) was added to each well and incubated at 37 °C for 4 h followed by medium aspiration. In each well, the formed formazan crystals were dissolved with 200 µL of acidified isopropanol (0.04 M HCl in absolute isopropanol = 0.073 mL HCL in 50 mL isopropanol). Absorbance of formazan solutions was measured at λ max 540 nm with 620 nm as a reference wavelength using a multi-well plate reader. The percentage of cytotoxicity compared to the untreated cells was determined with the following equation.

The test system of series [3] is SARS-CoV-2 (hCoV-19/Egypt/NRC-03/2020). Put plainly: Antiviral IC50 determination, reduction of virus-induced cytopathic effect in Vero-E6 cells (crystal violet). Type of series: cell-based. On the technique in general: Cytopathic effects are the visible damage that an infection or toxin causes in cultured cells.
On the set-up of series [4]: method as in PMID 31468636. Particulars: dose of 600 mg, healthy volunteers, cited from earlier work.
Setting [5] is: 100 µM concentration, FRET assay, read-out: % inhibition.
Where [6] appears, read: SARS COV-2 viral main protease, FRET assay, read-out: IC50.
Where [7] appears, read: 100 µM concentration, FRET assay.

pIC50: −log10 of the molar value. Converted amounts (≈) assume the structure as drawn. Like-named read-outs stand apart in the source and are kept apart here.

One may read the pIC50 as the negative decadic logarithm of the IC50, by convention in mol/L. In general, inhibition refers to the change of the read-out against control, counted positive when it falls. As a reminder, the % inhibition is the drop in the measured response relative to a control, in per cent. A high value points to a response far below the control. Usually CC50 stands for the concentration that lowers cell viability or growth by half. The low end stands for greater toxicity to the cells, the high end for lower toxicity to the cells. The IC50 is the concentration that inhibits the measured activity by half. One may read the Cmax as the peak of the concentration-time curve.

In series [1], `C[C@@H]1O[C@@H](O[C@@H]2[C@@H](O)[C@H](OCCc3ccc(O)c(O)c3)O[C@H](CO)[C@H]2OC(=O)/C=C/c2ccc(O)c(O)c2)[C@H](O)[C@H](O)[C@H]1O` [Compound 1, Acteoside] showed a pIC50 of 7.37. In addition, the inhibition at 100 µM in series [1] (setting [5]) is 75.8%.
As for `O=C(O)c1cc(O)c2c(c1)[C@@H]([C@H]1c3cc(C(=O)O)cc(O)c3C(=O)c3c(O[C@@H]4O[C@H](CO)[C@@H](O)[C@H](O)[C@H]4O)cccc31)c1cccc(O[C@@H]3O[C@H](CO)[C@@H](O)[C@H](O)[C@H]3O)c1C2=O` [Compound 2, Sennoside B], in series [1], the inhibition at 100 µM worked out at 78.5%.
Regarding `O=C(c1cc(O)cc(O)c1)c1c(O)cc(O)cc1O` [Compound 3, 2,3′,4,5′,6-Pentahydroxy benzophenone], the inhibition at 100 µM in series [1] (setting [5]) amounted to 87.9%. In addition, the negative logarithm of the IC50 (pIC50) in series [1] (setting [6]) is 6.99.
Consider `COc1ccc(-c2cc(=O)c3c(O)cc(O)cc3o2)cc1Oc1ccc(-c2cc(=O)c3c(O)cc(O)cc3o2)cc1` [Compound 4, Ochnaflavone-4′-methyl ether], for which the “% inhibition” value in series [1] (setting [7]) is recorded as 53.22%. The inhibition at 100 µM in series [1] (setting [5]) worked out at 53%.
`O=C1C[C@@H](c2ccc(O)cc2)Oc2cc(O)cc(O)c21` [Compound 5, Naringenin]: the CC50 at 24 h in series [2] turned out to be 179 µg/mL (≈ 657 µM). For the same compound, in series [1], the pIC50 is 7.04 and testing at 100 µM gave an inhibition of 97.9%. For the same compound, the IC50 in series [3] (Severe acute respiratory syndrome coronavirus 2, Vero C1008, 72 h, read-out: IC50 (anti-SARS-CoV-2)) turned out to be 28.3 µg/mL (≈ 104 µM). Besides, the “selectivity index (CC50/IC50)” value in series [3] (Vero-E6 cells) turned out to be 6.3. In addition, the toxicity entry in series [4] is given as “without relevant toxicity”. In addition, the maximum concentration (Cmax) in series [4] (read-out: serum Cmax) is approximately 50 µM.
For the compound `O=c1cc(-c2ccc(O)cc2)oc2cc(OC3O[C@H](CO)[C@@H](O)[C@H](O)[C@H]3O)cc(O)c12` (stereo partly drawn) [Compound 6, Apigenin-7-O-β-D-glucoside], in series [1] (setting [5]), the inhibition at 100 µM came to 83.1%. Further, in series [1] (setting [6]), the pIC50 is 7.13.
Compound `CC(C)C(=O)NCCC1(O)c2scnc2-c2nccc3c2C1Nc1ccccc1-3` (centres unmarked) [Compound 7, Sagitol C] yielded an inhibition at 100 µM in series [1] of 27%.
Still for that read-out and setting: in the case of `O=C(c1ccc(O)c(O)c1)c1c(O)cc(O)cc1OC1OC(CO)C(O)C(O)C1O` [Compound 8, Maclurin-6-O-β-D-glucopyranoside (Rhodanthenone)] it was 23.2%; in that of `C[C@@H]1O[C@@H](O[C@@H]2[C@@H](O)[C@H](OCCc3ccc(O)c(O)c3)O[C@H](COC(=O)/C=C/c3ccc(O)c(O)c3)[C@H]2O)[C@H](O)[C@H](O)[C@H]1O` [Compound 15, Iso-Acteoside], 24.6%; in that of `O=c1c(O)c(-c2ccc(O)cc2)oc2cc(OC3OC(CO)C(O)C(O)C3O)cc(O)c12` [Compound 16, Kaempferol-7-O-β-D-glucoside], 23.3%.
With `CC1=CC(=O)C(C(C)C)=CC1=O` [Compound 17, Thymoquinon], the “% inhibition” value in series [1] (setting [7]) worked out at 63.21%. The inhibition at 100 µM in series [1] (setting [5]) turned out to be 63%.
With `C/C=C1/[C@H](O[C@@H]2O[C@H](CO)[C@@H](O)[C@H](O)[C@H]2O)OC=C(C(=O)OC)[C@H]1CC(=O)OCCc1ccc(O)c(O)c1` [Compound 18, Oleuropein], testing at 100 µM in series [1] gave an inhibition of 26.4%.
